This passage reports IC50 results from patent US7781428B2 (Pfizer Inc., priority 2006, dated 2010).

For the assay, the target named is T1, mineralocorticoid receptor (MR) (Homo sapiens, UniProt P08235).
T1 construct: expressed in transfected cells; host or cells: Huh7 (human liver cells)
T1 sequence (P08235 726-964 limits assumed): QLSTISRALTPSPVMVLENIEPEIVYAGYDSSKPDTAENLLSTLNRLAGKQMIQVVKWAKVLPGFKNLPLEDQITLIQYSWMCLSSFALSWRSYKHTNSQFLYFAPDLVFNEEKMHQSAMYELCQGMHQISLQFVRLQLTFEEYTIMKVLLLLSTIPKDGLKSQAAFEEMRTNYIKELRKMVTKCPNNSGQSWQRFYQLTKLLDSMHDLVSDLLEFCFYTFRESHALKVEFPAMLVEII
Nature of the assay: Cell-based Gal4 response element-controlled luciferase reporter assay (MR antagonism). To be noted: Huh7 human liver cells transfected with Gal4 DBD-MR LBD fusion and luciferase reporter; block of agonist-induced activation; overnight incubation. In short, it runs like this: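 Transiently transfected Huh7 cells were treated with agonist at 70-80% of full activation plus compounds for 18-20 h in medium with charcoal/dextran-stripped serum. Luciferase read-out was normalized to β-galactosidase (ONPG, OD420); IC50 came from curve fitting.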
A general note: In a reporter assay the amount or activity of a reporter protein is the signal.

Each structure is given as a SMILES string. Where a name gives a salt, the structure may show the parent alone.

As for `N#Cc1ccc(N2N=C3c4ccc(C(=O)O)cc4OCC3C2C2CCCC2)cc1C(F)(F)F` (racemic) [Example 68, (±)-(3RS,3aSR)-2-[4-cyano-3-(trifluoromethyl)phenyl]-3-cyclopentyl-2,3,3a,4-tetrahydrochromeno[4,3-c]pyrazole-7-carboxylic acid], the IC50 came to 52 nM.
Turning to `Cc1cc(N2N=C3c4ccc(C(=O)O)cc4OC[C@H]3[C@H]2C2CCCC2)ccc1C#N` (single isomer, unassigned) [Example 63], the IC50 is over 1000 nM.
With `COC(=O)c1ccc2c(c1)CCC1C2=NN(c2ccc(C#N)c(OCc3ccccc3)c2)C1C1CCCC1` (racemic) [Example 30, methyl 2-(3-(benzyloxy)-4-cyanophenyl)-3-cyclopentyl-3,3a,4,5-tetrahydro-2H-benzo[g]indazole-7-carboxylate], the IC50 was 446 nM.
In the case of `Cc1ccc([C@@H]2[C@@H]3CCc4cc(C(=O)O)ccc4C3=NN2c2ccc(C#N)c(Cl)c2)o1` [Example 41, (3S,3aS)-2-(3-chloro-4-cyanophenyl)-3-(5-methyl-2-furyl)-3,3a,4,5-tetrahydro-2H-benzo[g]indazole-7-carboxylic acid] it was over 1000 nM; in that of `N#Cc1ccc(N2N=C3c4ccc(C(=O)O)cc4CCC3C2c2ccc(F)cc2)cn1` (racemic) [Example 14, 2-(6-cyanopyridin-3-yl)-3-(4-fluorophenyl)-3,3a,4,5-tetrahydro-2H-benzo[g]indazole-7-carboxylic acid trifluoroacetate], 929 nM; in that of `Cc1cc(N2N=C3c4ccc(C(=O)O)cc4OCC3C2C2CC2)ccc1C#N` (racemic) [Example 75, 2-(4-cyano-3-methylphenyl)-3-cyclopropyl-2,3,3a,4-tetrahydrochromeno[4,3-c]pyrazole-7-carboxylic acid], 711 nM.
In the case of `N#Cc1ccc(N2N=C3c4ccc(C(=O)O)cc4CCC3C2C2CCC2)cc1Cl` (racemic) [Example 35, 2-(3-chloro-4-cyanophenyl)-3-cyclobutyl-3,3a,4,5-tetrahydro-2H-benzo[g] indazole-7-carboxylic acid] it was 21 nM; in that of `Cc1ccc([C@H]2[C@H]3CCc4cc(C(=O)NCCS(C)(=O)=O)ccc4C3=NN2c2ccc(C#N)c(Cl)c2)o1` [Example 117, (3R,3aR)-2-(3-chloro-4-cyanophenyl)-3-(5-methyl-2-furyl)-N-[2-(methylsulfonyl)ethyl]-3,3a,4,5-tetrahydro-2H-benzo[g]indazole-7-carboxamide], 3 nM.
Take `N#Cc1ccc(N2N=C3c4ccc(C(=O)O)cc4CC[C@@H]3[C@@H]2c2ccco2)cc1Cl` [Example 44, (3R,3aR)-2-(3-chloro-4-cyanophenyl)-3-(2-furyl)-3,3a,4,5-tetrahydro-2H-benzo[g]indazole-7-carboxylic acid]: the concentration for half-maximal inhibition (IC50) stood at 16 nM.
As for `N#Cc1ccc(N2N=C3c4ccc(O)cc4CC[C@H]3[C@H]2c2ccc(F)cc2)cc1Cl` [Example 88, 2-chloro-4-((3S,3aS)-3-(4-fluorophenyl)-7-hydroxy-3,3a,4,5-tetrahydrobenzo[g]indazol-2-yl)benzonitrile], the figure is over 1000 nM; as for `N#Cc1ccc(N2N=C3c4ccc(C(=O)O)cc4CCC3C2c2ccco2)cc1Cl` (racemic) [Example 43, 2-(3-chloro-4-cyanophenyl)-3-(2-furyl)-3,3a,4,5-tetrahydro-2H-benzo[g] indazole-7-carboxylic acid], 21 nM.
As for `Cc1cc(N2N=C3c4ccc(O)cc4CC[C@H]3[C@H]2c2ccc(F)cc2)ccc1C#N` [Example 82, 4-((3S,3aS)-3-(4-fluorophenyl)-7-hydroxy-3,3a,4,5-tetrahydrobenzo[g]indazol-2-yl)-2-methylbenzonitrile], the figure is over 1000 nM.
As for `N#Cc1ccc(N2N=C3c4ccc(C(=O)O)cc4CC[C@@H]3[C@@H]2C2CCCC2)cc1O` (racemic) [Example 33], the figure is over 500 nM.
As for `CC(=O)Nc1ccc2c(c1)CCC1C2=NN(c2ccc(C#N)c(Cl)c2)C1C1CCCC1` (stereo not shown) [Example 91, N-(-2-(3-chloro-4-cyanophenyl)-3-cyclopentyl-3,3a,4,5-tetrahydro-2H-benzo[g]indazol-7-yl)acetamide], the half-inhibitory concentration (IC50) stood at 5 nM.
As for `COCc1cc(N2N=C3c4ccc(C(=O)O)cc4CCC3C2C2CCCC2)ccc1C#N` (racemic) [Example 28, 2-(4-cyano-3-(methoxymethyl)phenyl)-3-cyclopentyl-3,3a,4,5-tetrahydro-2H-benzo[g] indazole-7-carboxylic acid], the figure is 150 nM; as for `N#Cc1ccc(N2N=C3c4ccc(C(=O)O)cc4CCC3C2C2CCCC2)cc1` (racemic) [Example 18, 2-(4-cyanophenyl)-3-cyclopentyl-3,3a,4,5-tetrahydro-2H-benzo[g]indazole-7-carboxylic acid], 89 nM; as for `Cc1cc(N2N=C3c4ccc(C(=O)O)cc4CC[C@@H]3[C@@H]2C2CCCC2)ccc1C#N` (single isomer, unassigned) [Example 22], 4 nM.
In the case of `Cc1cc(N2N=C3c4ccc(C(=O)O)cc4OCC3C2c2ccc(F)cc2)ccc1C#N` (racemic) [Example 53, (±)-(3SR,3aSR)-2-(4-cyano-3-methylphenyl)-3-(4-fluorophenyl)-2,3,3a,4-tetrahydrochromeno[4,3-c]pyrazole-7-carboxylic acid] it was 307 nM.
With `N#Cc1ccc(N2N=C3c4ccc(C(=O)O)cc4OCC3C2C2CCCC2)cc1C(F)(F)F` (racemic) [Example 69, (±)-(3RS,3aRS)-2-[4-cyano-3-(trifluoromethyl)phenyl]-3-cyclopentyl-2,3,3a,4-tetrahydrochromeno[4,3-c]pyrazole-7-carboxylic acid], the IC50 was determined as 130 nM.
As for `N#Cc1ccc(N2N=C3c4ccc(C(=O)O)cc4CC[C@H]3[C@H]2c2ccc(F)cc2)cc1Cl` [Example 4, (3S,3aS)-2-(3-chloro-4-cyanophenyl)-3-(4-fluorophenyl)-3,3a,4,5-tetrahydro-2H-benzo[g]indazole-7-carboxylic acid], the figure is 3500 nM.
In the case of `N#Cc1ccc(N2N=C3c4ccc(C(=O)O)cc4CC[C@@H]3[C@@H]2c2ccoc2)cc1Cl` [Example 47, (3R,3aR)-2-(3-chloro-4-cyanophenyl)-3-(3-furyl)-3,3a,4,5-tetrahydro-2H-benzo[g]indazole-7-carboxylic acid] it was 18 nM; in that of `N#Cc1ccc(N2N=C3c4ccc(C(=O)O)cc4OC[C@H]3[C@H]2C2CCCC2)cc1Cl` [Example 66, (3R,3aS)-2-(3-chloro-4-cyanophenyl)-3-cyclopentyl-2,3,3a,4-tetrahydrochromeno[4,3-c]pyrazole-7-carboxylic acid], 3350 nM; in that of `CN(C)Cc1cc(N2N=C3c4ccc(C(=O)O)cc4CCC3C2C2CCCC2)ccc1C#N` (racemic) [Example 29, 2-(4-cyano-3-((dimethylamino)methyl)phenyl)-3-cyclopentyl-3,3a,4,5-tetrahydro-2H-benzo[g]indazole-7-carboxylic acid trifluoroacetate], over 1000 nM.
Consider `CS(=O)(=O)CCNC(=O)c1ccc2c(c1)CC[C@H]1C2=NN(c2ccc(C#N)c(Cl)c2)[C@H]1C1CCCC1` [Example 114, (3S,3aR)-2-(3-chloro-4-cyanophenyl)-3-cyclopentyl-N-(2-(methylsulfonyl)ethyl)-3,3a,4,5-tetrahydro-2H-benzo[g]indazole-7-carboxamide], for which the IC50 was found to be 1 nM.
As for `N#Cc1ccc(N2N=C3c4ccc(C(=O)O)cc4OC[C@H]3[C@H]2c2ccc(F)cc2)cc1` [Example 60, (3S,3aS)-2-(4-cyanophenyl)-3-(4-fluorophenyl)-2,3,3a,4-tetrahydrochromeno[4,3-c]pyrazole-7-carboxylic acid], the figure is over 1000 nM; as for `N#Cc1ccc(N2N=C3c4ccc(C(=O)O)cc4CC[C@H]3[C@H]2C2CCCC2)cc1` [Example 20, (3R,3aS)-2-(4-cyanophenyl)-3-cyclopentyl-3,3a,4,5-tetrahydro-2H-benzo[g]indazole-7-carboxylic acid], 2880 nM.
As for `N#Cc1ccc(N2N=C3c4ccc(C(=O)O)cc4CC[C@@H]3[C@@H]2C2CCCC2)cc1` [Example 19, (3S,3aR)-2-(4-cyanophenyl)-3-cyclopentyl-3,3a,4,5-tetrahydro-2H-benzo[g]indazole-7-carboxylic acid], the figure is 37.6 nM.
In the case of `COc1cc(N2N=C3c4ccc(C(=O)O)cc4CC[C@H]3[C@H]2C2CCCC2)ccc1C#N` [Example 27, (3R,3aS)-2-(4-cyano-3-methoxyphenyl)-3-cyclopentyl-3,3a,4,5-tetrahydro-2H-benzo[g]indazole-7-carboxylic acid] it was 305 nM; in that of `N#Cc1ccc(N2N=C3c4ccc(O)cc4CCC3C2c2ccc(F)cc2)cc1` (racemic) [Example 90, (±)-4-((3RS,3aSR)-3-(4-fluorophenyl)-7-hydroxy-3,3a,4,5-tetrahydrobenzo[g]indazol-2-yl)benzonitrile], 1100 nM; in that of `N#Cc1ccc(N2N=C3c4ccc(C(=O)O)cc4OC[C@H]3[C@H]2C2CCCC2)cc1` [Example 72, (3R,3aS)-2-(4-cyanophenyl)-3-cyclopentyl-2,3,3a,4-tetrahydrochromeno[4,3-c]pyrazole-7-carboxylic acid], 8100 nM.
For the compound `N#Cc1ccc(N2N=C3c4ccc(C(=O)O)cc4CCC3C2C2CCOCC2)cc1` (racemic) [Example 37, 2-(4-cyanophenyl)-3-(tetrahydro-2H-pyran-4-yl)-3,3a,4,5-tetrahydro-2H-benzo[g]indazole-7-carboxylic acid], the half-inhibitory concentration (IC50) was over 1000 nM.

What is called IC50 is the concentration needed to halve the response being measured.
